The target in experiment [1] is T1, 5-hydroxytryptamine receptor 1A (Rattus norvegicus) (UniProt P19327).
T1 sequence (whole entry): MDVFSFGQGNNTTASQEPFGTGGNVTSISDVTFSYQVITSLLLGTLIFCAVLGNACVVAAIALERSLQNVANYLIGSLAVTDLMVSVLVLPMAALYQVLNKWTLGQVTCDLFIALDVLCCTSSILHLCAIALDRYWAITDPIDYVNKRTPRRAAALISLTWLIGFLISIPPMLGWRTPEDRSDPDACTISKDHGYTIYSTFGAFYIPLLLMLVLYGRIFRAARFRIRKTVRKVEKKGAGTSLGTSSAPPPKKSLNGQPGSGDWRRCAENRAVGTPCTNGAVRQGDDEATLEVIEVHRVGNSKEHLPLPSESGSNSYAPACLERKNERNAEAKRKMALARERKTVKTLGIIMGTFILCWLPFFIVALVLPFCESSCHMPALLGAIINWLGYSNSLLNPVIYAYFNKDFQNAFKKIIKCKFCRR
It is filed as tissue-based. The conditions noted are these: Hippocampus.

In experiment [2] the target is T2, 5-hydroxytryptamine receptor 1A (Rattus norvegicus, UniProt P19327).
T2 sequence (P19327 whole entry): T1 sequence (whole entry)
Put plainly: biochemical.
Description: Inhibition of binding of [125I]8-OH-PIPAT ligand to 5-hydroxytryptamine 1A receptor of rat hippocampal homogenates

Experiment [3] addresses T2, 5-hydroxytryptamine receptor 1A. It is filed as tissue-based, Hippocampus.
The target is the same in experiment [4]. It is filed as tissue-based, Hippocampus. The source holds these as a separate data set.

The Ki is a measure of affinity in units of concentration, obtained from inhibition or displacement. Read a low Ki as higher affinity. In experiment [1], `CCCN(C/C=C/I)C1CCc2cccc(O)c2C1` (centres undefined) displayed a Bmax (fM (mg of protein)-1) of 310. In experiment [2], this compound had a Ki of 0.38 nM.
Usually Kd stands for the free concentration of one partner at which half of the binding sites on the other are occupied at equilibrium, for simple one-to-one binding. The low end stands for higher affinity, the high end for lower affinity. In turn, `COc1ccccc1N1CCN(CCN(C(=O)c2ccc(I)cc2)c2ccccn2)CC1` came in with a Kd in experiment [3] of 0.3 nM.
For the compound `COc1ccccc1N1CCN(CCCCNC(=O)C23C[C@H]4C[C@@H](C2)C[C@@H](C3)C4)CC1`, the Kd in experiment [4] came out at 0.4 nM.

The values above are taken from ChEMBL document CHEMBL1127504, “Synthesis and evaluation of 4-(2'-methoxyphenyl)-1-[2'-[N-(2"-pyridinyl)-p- iodobenzamido]ethyl]piperazine (p-MPPI): a new iodinated 5-HT1A ligand” (J Med Chem, 1994).
